Test results as given in patent US4261910A, “Process for the preparation of Chlorambucil derivatives” (Kureha Kagaku Kogyo Kabushiki Kaisha, priority 1978, dated 1981).
Like-named read-outs stand apart in the source and are kept apart here.

How the values were obtained:
estrogen receptor = assay: Test 3: binding function to estrogen sensitive cells (displacement of 3H-estradiol from uterus of rabbit)
Procedure: Binding function of 3-hydroxy-1,3,5(10)-estratriene-17β-[4-{p-[bis(2-chloroethyl)amino]phenyl}butyryloxy]acetate to estrogen sensitive cells.
Estradiol labelled by tritium (^3 H) was incubated with uterus of rabbit to bind it and then, the sample was added to the system to measure the amount of free ^3 H-estradiol which was replaced by the […].

[1] = system: human breast cancer cells having steroid hormone receptor; assay: Test 2: antitumor effect, dispersion in Polysolvate 80, intraperitoneal injection; format: in vivo, human (implanted in BALB/C-nu/nu mice); details: Polysolvate 80 dispersion
From the text: (§1) Pieces of human breast cancer cells having steroid hormone receptor were subcutaneously implanted under the arm of mice (BALB/C-nu/nu) (5 week age) to form solid tumors. After the solid tumors were established, each dispersion or solution of the active ingredient in olive oil was administrated by oral dose or intraperitoneal injection each other day for 10 times or every days for 20 times. Twenty five days from the initial administration, the tumors were excised. Efficiency of inhibition of tumor proliferation was measured from (A) each average weight of excised tumors for 10 mice (the active ingredient was administrated) and (B) each average weight of excised tumors for 10 control mice. [formula]
In accordance with the test I, except administrating each active ingredient in a form of dispersion dispersed in Polysolvate 80 (emulsifier) by an intraperitoneal injection in the test of antitumor effect.

Acute toxicity (LD50) = assay: Acute toxicity (LD50); set-up: species or system mice (ICR-JCL); details: mouse, in vivo; for LD50: Test 2, route and unit inferred; for LD50 at 168 h: mice
Procedure: In the measurement of LD50, eight ICR-JCL female mice (5 week age) were used as one group to breed in a transparent polycage, and each drug was dissolved in olive oil and administrated by routes of intraperitoneal injection (i.p.), oral administration (p.o.) and subcutaneous injection (s.c.), to the mice at one dose, and then, their value of LD50 by Litchfield-Wilcoxon graph method is obtained after 7 days. LD50 of Chlorambucil was i.p. 20 mg./kg., p.o. 80 mg./kg., and s.c. 26 mg./kg., LD50 of the sample No. 2 in Table 1 of the present invention was i.p. greater than 3000 mg./kg., p.o. greater than 6000 mg./kg. and s.c. greater than 3000 mg./kg.. […]

[2] = system: human breast cancer cells having steroid hormone receptor; assay: Antitumor test (in vivo), implanted human breast cancer, drug in olive oil; set-up: species or system human (implanted in BALB/C-nu/nu mice)
[3] = system: human breast cancer cells having steroid hormone receptor; assay: as above; set-up: species or system human (implanted in BALB/C-nu/nu mice); details: oral administration
From the text: as §1

[4] = system: spleen, uterus and thymus; assay: Observation in autopsy; format: in vivo, mice (BALB/C-nu/nu); details: autopsy after administration
From the text: as §1

[5] = subcutaneous administration, 5 mg/kg
[6] = subcutaneous administration, 10 mg/kg
[7] = ip, single dose in olive oil, i.p., 7 days, read-out: LD50
[8] = po, oral administration, Table 1, read-out: LD50 (Oral administration)
[9] = po, single dose in olive oil, p.o., 7 days, read-out: LD50
[10] = sc, single dose in olive oil, s.c., 7 days, read-out: LD50
[11] = sc, subcutaneous administration, Table 1, read-out: LD50 (Subcutaneous administration)

With C[C@]12CC[C@@H]3c4ccc(O)cc4CC[C@H]3[C@@H]1CC[C@@H]2OC(=O)COC(=O)CCCc1ccc(N(CCCl)CCCl)cc1 [3-hydroxy-1,3,5(10)-estratriene-17β-[4-{p-[bis(2-chloroethyl)amino]phenyl}butyryloxy]acetate] the “binding function to estrogen receptor” value (estrogen receptor) was “has the binding function to estrogen receptor”, the “free 3H-estradiol (displacement)” value (estrogen receptor; compared with estradiol) was “free ^3 H-estradiol was increased as the same with estradiol itself” and the “Inhibitory effect (%)” value ([1]; 0.5 mg./kg.) was 91%. The “Inhibitory effect (%)” value ([1]; 5 mg./kg.) was 97% and the LD50 (Acute toxicity (LD50); ip) was over 1000 mg/kg.
With O=C(O)CCCc1ccc(N(CCCl)CCCl)cc1 [Sample No. 1, 4-{p-[bis(2-chloroethyl)amino]phenyl}butyric acid, reference compound] the Efficiency of inhibition [2, 5] was 53%, the Survived ratio [2, 5] was 9/10 and the Efficiency of inhibition [2, 6] was 71%. The Survived ratio [2, 6] was 7/10, the Efficiency of inhibition ([2]; subcutaneous and oral administration, 15 mg./kg. (text, about)) was 50 to 70% and the Efficiency of inhibition ([3]; 10 mg/kg) was 55%. The Survived ratio ([3]; 10 mg/kg) was 8/10, the Efficiency of inhibition ([3]; 15 mg/kg) was 70% and the Survived ratio ([3]; 15 mg/kg) was 7/10. The “changes of spleen, uterus and thymus in autopsy” value [4] was “serious changes of spleen, uterus and thymus were found”, the “Inhibitory effect (%)” value ([1]; 5 mg./kg.) was 30% and the LD50 (Acute toxicity (LD50); ip) was 20 mg/kg. It also gave an LD50 at 168 h (Acute toxicity (LD50); [7]) of 20 mg/kg, an LD50 at 168 h (Acute toxicity (LD50); [8]) of 80 mg/kg and an LD50 at 168 h (Acute toxicity (LD50); [9]) of 80 mg/kg. It also gave an LD50 at 168 h (Acute toxicity (LD50); [10]) of 26 mg/kg and an LD50 at 168 h (Acute toxicity (LD50); [11]) of 26 mg/kg.
In the case of C[C@]12CC[C@@H]3c4ccc(OC(=O)c5ccccc5)cc4CC[C@H]3[C@@H]1CC[C@@H]2OC(=O)COC(=O)CCCc1ccc(N(CCCl)CCCl)cc1 [Sample No. 2, 3-benzoyloxy-1,3,5(10)-estratriene-17β-[4-{p-[bis(2-chloroethyl)amino]phenyl}butyryloxy]acetate], the Efficiency of inhibition [2, 5] is reported as 90%, the Survived ratio [2, 5] is reported as 10/10 and the Efficiency of inhibition [2, 6] is reported as 98%. The Survived ratio [2, 6] was 10/10, the Efficiency of inhibition ([3]; 10 mg/kg) was 92% and the Survived ratio ([3]; 10 mg/kg) was 10/10. The Efficiency of inhibition ([3]; 15 mg/kg) was 98%, the Survived ratio ([3]; 15 mg/kg) was 10/10 and the LD50 at 168 h (Acute toxicity (LD50); [7]) was over 3000 mg/kg. The LD50 at 168 h (Acute toxicity (LD50); [8]) was over 6000 mg/kg, the LD50 at 168 h (Acute toxicity (LD50); [9]) was over 6000 mg/kg and the LD50 at 168 h (Acute toxicity (LD50); [10]) was over 3000 mg/kg. The LD50 at 168 h (Acute toxicity (LD50); [11]) was over 2000 mg/kg.
For CC(=O)Oc1ccc2c(c1)CC[C@@H]1[C@@H]2CC[C@]2(C)[C@@H](OC(=O)COC(=O)CCCc3ccc(N(CCCl)CCCl)cc3)CC[C@@H]12 [Sample No. 3, 3-acetoxy-1,3,5(10)-estratriene-17β-[4-{p-[bis(2-chloroethyl)amino]phenyl}butyryloxy]acetate], the Efficiency of inhibition [2, 5] was 93%, the Survived ratio [2, 5] was 10/10 and the Efficiency of inhibition [2, 6] was 95%. For the same compound, the Survived ratio [2, 6] was 10/10, the Efficiency of inhibition ([3]; 10 mg/kg) was 91% and the Survived ratio ([3]; 10 mg/kg) was 10/10. The Efficiency of inhibition ([3]; 15 mg/kg) was 93%, the Survived ratio ([3]; 15 mg/kg) was 10/10 and the LD50 at 168 h (Acute toxicity (LD50); [8]) was over 3000 mg/kg. It also gave an LD50 at 168 h (Acute toxicity (LD50); [11]) of over 2000 mg/kg.
In the case of CCC(=O)Oc1ccc2c(c1)CC[C@@H]1[C@@H]2CC[C@]2(C)[C@@H](OC(=O)COC(=O)CCCc3ccc(N(CCCl)CCCl)cc3)CC[C@@H]12 [Sample No. 4, 3-propionyloxy-1,3,5(10)-estratriene-17β-[4-{p-[bis(2-chloroethyl)amino]phenyl}butyryloxy]acetate], the Efficiency of inhibition [2, 5] is reported as 92%, the Survived ratio [2, 5] is reported as 10/10 and the Efficiency of inhibition [2, 6] is reported as 94%. The Survived ratio [2, 6] was 10/10, the Efficiency of inhibition ([3]; 10 mg/kg) was 93% and the Survived ratio ([3]; 10 mg/kg) was 10/10. For the same compound, the Efficiency of inhibition ([3]; 15 mg/kg) was 97%, the Survived ratio ([3]; 15 mg/kg) was 10/10 and the LD50 at 168 h (Acute toxicity (LD50); [8]) was over 3000 mg/kg. It also gave an LD50 at 168 h (Acute toxicity (LD50); [11]) of over 2000 mg/kg.
